The structures appear in SMILES notation. Several values for one entry are separate records, joined by “and”; a condition that tells them apart may be missing. Equal values may be shown once.

The values that follow come from patent publication US6645954B2, “Compositions comprising ethisterone or its derivatives” (Multimed Limited, priority 1998, dated 2003).

Data set [1] in a line: Andropause CheckList score (ACL) and clinical symptom response in hypogonadal men. The data set is classed as in vivo, human. As to conditions: for clinical response / symptoms: Example 2, person, pre-treatment ACL 25, successive treatments. Here is the method:
ACL—Andropause CheckList Score—A questionnaire rating the incidence and severity of symptoms of the andropause. The greater the checklist score, the more severe are the symptoms.
These consecutive referrals were evaluated at interview by administering a questionnaire, the “Andropause Check List” which rated each symptom on a five point rating scale as being absent (0), slight (1), moderate (2), severe (3) or total (4). It also included questions on the monthly frequency of intercourse and masturbation. A detailed history was taken focussing especially on factors which might affect testicular function and this was entered onto a computerised database (Microsoft Access).
(§1) During treatment, the severity of symptoms and level of sexual activity on the Andropause Check List score was reassessed at three monthly intervals, as well as weight, blood pressure, resting pulse rate, full endocrine, biochemical and haematological profiles, and in some cases ultrasound studies of the prostate and testes. In all cases, subjects were used as their own controls in the comparison of the effects of treatment. All results were stored in a specially designed Microsoft Access database, and […] analyes were carried out using the SPSS version 9 programme.

Data set [2] in a line: Sexual activity (intercourse per month) reported by subjects. The format is in vivo, human. As to conditions: Example 5, person; D1 alone, within 3 months; before: once a month.
Data set [3] relates to Total Testosterone. In words: Total Testosterone (TT) in fasting blood. The format is in vivo, human. The source says: TT—Total Testosterone in nmol/l (NR 13-35)
(§2) Fasting blood samples were taken between 9 and 12 am to minimize the effects of diurnal variation, and analyses included the standard full biochemical, lipid and haematology profiles, prostate specific antigen and routine urine analysis. The endocrine assessment included follicle stimulating hormone (FSH) and luteinizing hormone (LH) prolactin, total testosterone (TT), dihydrotestosterone (DHT), sex hormone binding globulin (SHBG), oestradiol (E2) cortisol and either total thyroxine or TSH.

Data set [4] relates to Sex Hormone Binding Globulin. In words: Sex Hormone Binding Globulin (SHBG) in fasting blood. The format is in vivo, human. As to conditions: for Sex Hormone Binding Globulin: Clinical trial, FIG. 4, started above the normal range (20-45 nmol/l) in Danazol groups.
Description: SHBG—Sex Hormone Binding Globulin in nmol/l (NR 20-45)
as §2

The test system of the next data set is Free Androgen Index. In words: Free Androgen Index (FAI = TT/SHBG x 100). The data set is classed as in vivo, human. The source says:
It has been found (Carruthers, M. ‘The Male Menopause, Harpercollins’, London, 1996) that the symptoms associated with this condition arise due to an absolute or relative insufficiency of testosterone, particularly the latter, caused by a reduction in the Free Active Testosterone (FAT); that is a lack of testosterone present in an unbound state in blood plasma. Testosterone in vivo can be bound to sex hormone binding globulin (SHBG) and to a lesser extent, albumin. When bound the testosterone is not freely available to the body or bio-available. One of the best measures of this is the ‘Free Androgen Index’ (FAI). This is calculated by dividing the Total Testosterone (TT) by the ‘sex Hormone Binding Globulin’ (SHBG) and multiplying by a hundred to express it as a percentage. In the healthy, asymptomatic male this is normally in the range 70-100%. Symptoms of the andropause regularly appear when this drops below 50%, except in a few cases where the TT is low and the body appears to compensate by reducing SHBG levels to maintain the FAI.
FAI—Free Androgen Index (NR 70-100%)

The subject of data set [5] is Follicle Stimulating Hormone. In words: Follicle Stimulating Hormone (FSH) in fasting blood. The data set is classed as in vivo, human.
Description: FSH—Follicle Stimulating Hormone in IU/l (NR 1-6)
as §2

The next data set relates to Luteinising Hormone. In words: Luteinising Hormone (LH) in fasting blood. The format is in vivo, human.
Description: LH—Luteinising Hormone in IU/l (NR 0.7-6)
as §2

The next data set concerns Oestradiol. In words: Oestradiol (E2) in fasting blood. The format is in vivo, human.
Description: as §2

Data set [6] has as its system Prostate Specific Antigen. In words: PSA, biochemistry and haematology profiles during treatment. As to conditions: Example 5; D1 alone, 2 years. The format is in vivo, human.
Description: PSA—Total Prostate Specific Antigen in ug/l (NR<4.0)
as §2, §1

Data set [7] concerns Total Testosterone. The settings on record: cited from earlier work.
A further data set has as its target T1, progesterone receptors (Homo sapiens, UniProt P06401).
T1 sequence (P06401 1-933): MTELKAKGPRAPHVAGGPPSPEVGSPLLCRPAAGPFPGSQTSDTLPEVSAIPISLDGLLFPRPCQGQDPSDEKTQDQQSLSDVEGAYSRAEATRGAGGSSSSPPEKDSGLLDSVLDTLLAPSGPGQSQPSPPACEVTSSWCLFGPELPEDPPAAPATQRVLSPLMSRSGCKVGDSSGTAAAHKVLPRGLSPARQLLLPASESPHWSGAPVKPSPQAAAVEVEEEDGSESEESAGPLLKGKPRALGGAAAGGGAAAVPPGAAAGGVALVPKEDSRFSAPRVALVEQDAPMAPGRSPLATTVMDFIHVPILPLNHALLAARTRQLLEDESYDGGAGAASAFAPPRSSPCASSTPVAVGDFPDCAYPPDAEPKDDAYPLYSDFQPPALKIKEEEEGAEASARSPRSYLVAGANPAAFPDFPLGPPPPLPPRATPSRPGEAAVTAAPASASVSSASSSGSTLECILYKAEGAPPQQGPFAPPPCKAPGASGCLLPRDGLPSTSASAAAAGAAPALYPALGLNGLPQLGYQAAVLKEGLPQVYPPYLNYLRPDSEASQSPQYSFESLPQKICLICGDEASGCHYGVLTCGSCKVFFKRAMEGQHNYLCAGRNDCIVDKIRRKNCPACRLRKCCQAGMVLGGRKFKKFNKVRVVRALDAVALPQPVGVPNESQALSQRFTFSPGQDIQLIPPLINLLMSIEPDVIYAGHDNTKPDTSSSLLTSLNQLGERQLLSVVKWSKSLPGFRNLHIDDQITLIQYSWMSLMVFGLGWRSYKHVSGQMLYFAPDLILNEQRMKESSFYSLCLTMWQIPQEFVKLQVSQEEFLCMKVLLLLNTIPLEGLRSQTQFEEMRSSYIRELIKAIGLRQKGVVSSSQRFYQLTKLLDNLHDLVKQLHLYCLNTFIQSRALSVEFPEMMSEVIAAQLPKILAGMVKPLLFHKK
The settings on record: cited from earlier work.

For a further data set, the system named is oestrogen receptors. As to conditions: cited from earlier work.
The test system of the next data set is dihydrotestosterone. In words: Dihydrotestosterone (DHT) in fasting blood. The data set is classed as in vivo, human. The settings on record: Clinical trial; treatment alone, without Danazol.
Description: as §2

Data set [8] can be described thus: Adverse effects / tolerability. As to conditions: Example 2.
Setting [9] is: Example 1, R3 increased monthly to R4 then R6.

On to `C#C[C@]1(O)CC[C@H]2[C@@H]3CCC4=Cc5oncc5C[C@]4(C)[C@H]3CC[C@@]21C` [Danazol, [1,2], oxazolo[4,5-b]17alpha-pregna-2,4-dien-20-yn-17beta-ol], for which the “total Andropause Check List (ACL) score” value in [1] (Clinical trial, FIG. 1, Danazol 100 mg alternate mornings or daily added to testosterone treatment, up to six 3-6 monthly visits) is reported as “fell equally”. The “efficacy of testosterone treatment for hypogonadal men” value in data set [1] (Clinical trial, danazol added to three different forms of testosterone treatment, particularly where SHBG raised) is “greatly increased their efficacy”. Further, the clinical response result in data set [1] (Example 5, D1 alone, for 2 years) is given as “maintained”. In addition, the ACL in [1] (Example 5, D1 alone, within 3 months, pre-treatment ACL 26) was 14. For the same molecule, the sexual activity result in data set [2] was “twice a week”. The TT with Total Testosterone [3] (Example 5, D1 alone, within 3 months, pre-treatment 50) worked out at 48 nmol/L. The “Sex Hormone Binding Globulin” value in data set [4] is recorded as “uniformly ended at the bottom end of it”. In addition, the SHBG in data set [4] (Example 5, D1 alone, successive values over 2 years, listed as D1) is 19 nmol/L and 23 nmol/L and 17 nmol/L; in data set [4] (Example 5, D1 alone, within 3 months, pre-treatment 72) it was 39 nmol/L. Also, the “Free Androgen Indices” value in the data set with Free Androgen Index (Clinical trial, FIG. 5, Danazol added to the three testosterone treatments) is given as “markedly increased”. In addition, in the data set with Free Androgen Index (Example 5, D1 alone, within 3 months, pre-treatment 69.4), the FAI worked out at 123%. Also, the FSH result in [5] (Clinical trial, FIG. 6, Danazol added to the testosterone treatment) was “greater reductions”; in [5] (Example 5, D1 alone, within 3 months, pre-treatment 5.9) it was 4.5 IU/l. Besides, the “LH (gonadotrophins)” value in the data set on Luteinising Hormone (Clinical trial, FIG. 7, Danazol added to the testosterone treatment) is listed as “greater reductions”. Besides, the LH in the data set with Luteinising Hormone (Example 5, D1 alone, within 3 months, pre-treatment 6.0) is reported as 2.9 IU/l. In addition, the E2 in the data set on Oestradiol (Example 5, D1 alone, within 3 months, pre-treatment 120) is less than 44 pmol/L. Moreover, the “effects on PSA, full biochemistry or haematological profile” value in data set [6] is on record as “no adverse effects”. Besides, the total plasma testosterone result in the data set with Total Testosterone [7] (previous uses in women and men at doses of 200 to 600 mg) is recorded as “reduced”. Besides, at progesterone receptors, the “affinity for progesterone receptors” value is recorded as “low affinity”. The “interaction with oestrogen receptors” value with oestrogen receptors was “does not interact with oestrogen receptors to any significant extent”.

With `C[C@H]1CC(=O)C[C@@H]2CC[C@H]3[C@@H]4CC[C@H](O)[C@@]4(C)CC[C@@H]3[C@]21C` [ME, mesterolone], the “clinical response / symptoms” value in data set [1] is reported as “poor clinical response”. Further, the DHT entry in the data set on dihydrotestosterone is on record as “trebling”.

In the case of `CCCCCCCCCCC(=O)O[C@H]1CC[C@H]2[C@@H]3CCC4=CC(=O)CC[C@]4(C)[C@H]3CC[C@]12C` [Restandol, testosterone undecanoate], the relief of symptoms entry in [1] (Example 1, person, R3 increased at monthly intervals to R4 then R6) is on record as “only partial relief of symptoms”. Also, the “clinical response / symptoms” value in data set [1] is on record as “poor clinical response”. In addition, the clinical results in data set [1] (Example 6, further reduction of testosterone dosage to the lowest level of R2) is listed as “excellent”. Besides, the TT in the data set on Total Testosterone [3] (Example 1, R3 increased monthly to R4 then R6, pre-treatment 27.4) turned out to be 21.4 nmol/L; in the data set on Total Testosterone [3] (Example 3, person, R6, after 3 months, pre-treatment 20), 22.2 nmol/L. The “Sex Hormone Binding Globulin” value in [4] is listed as “reduction in SHBG levels on its own”. For the same molecule, the SHBG in data set [4] (Example 1, R3 increased monthly to R4 then R6, Restandol alone, pre-treatment 73) came out at 47 nmol/L; in data set [4] (Example 3, R6, after 3 months, pre-treatment 56.7), 112 nmol/L. Besides, the FAI with Free Androgen Index (Example 1, R3 increased monthly to R4 then R6, pre-treatment 38%) is on record as 46%; in the data set with Free Androgen Index (Example 3, R6, after 3 months, pre-treatment 35) it was 19.8%. In addition, the FSH in data set [5] (setting [9]) is 8.9 IU/l. In addition, in the data set with Luteinising Hormone (Example 1, R3 increased monthly to R4 then R6, pre-treatment 6.1), the LH was 6.7 IU/l. The molecule further showed an E2 in the data set on Oestradiol (setting [9]) of 178 pmol/L.

For `C[C@]12CC[C@H]3[C@@H](CCC4=CC(=O)CC[C@@]43C)[C@@H]1CC[C@@H]2O` [TI, testosterone], the symptoms entry in [1] (Example 1, TI, 3 years after starting treatment) is “symptoms reappeared”. The erection problems result in data set [1] (Example 1, after change to TI) is reported as “rapidly improved”. Also, the “clinical response / symptoms” value in data set [1] is recorded as “relieved their symptoms”. Also, the TT worked out at 35.6 nmol/L in the data set with Total Testosterone [3] (Example 1, TI, a year later) and 30.6 nmol/L in the data set on Total Testosterone [3] (Example 3, TI, after 6 months). The SHBG in data set [4] (Example 1, TI, a year later) was 74 nmol/L; in data set [4] (Example 3, TI alone, successive values during the following 2 years), 82.1 nmol/L and 85 nmol/L and 54 nmol/L and 81 nmol/L; in [4] (Example 3, TI, after 6 months), 95.3 nmol/L. Also, the FAI in the data set on Free Androgen Index (Example 1, TI, a year later) came to 48%; in the data set with Free Androgen Index (Example 3, TI, after 6 months) it was 32%. Also, in data set [5] (Example 1, TI, a year later), the FSH entry is recorded as “total suppression”. The LH entry with Luteinising Hormone (Example 1, TI, a year later) is given as “total suppression”. The DHT result in the data set with dihydrotestosterone is reported as “no increase”. Further, the mean testosterone levels in the data set with Total Testosterone [7] (previous study, samples taken 3 months after implantation) is 45 nmol/L. The “adverse events of implant” value in data set [8] is given as “became infected on several occasions, with extrusion of pellets”.
